Laboratory results as given in patent US6410585B1, “Inhibitors of protein tyrosine phosphatase” (priority 1997, dated 2002).
Where two headings read alike, the source gives them in different places.

Target: T1, rat PTP1 (Rattus norvegicus, UniProt P20417)
T1 construct: a C-terminal truncation of rat PTP1 (amino acid residues 1-322); GST (N, cleaved yes); made in house; host or cells: E. coli strain TG-1 (pGEX-2T)
T1 sequence (P20417 1-322): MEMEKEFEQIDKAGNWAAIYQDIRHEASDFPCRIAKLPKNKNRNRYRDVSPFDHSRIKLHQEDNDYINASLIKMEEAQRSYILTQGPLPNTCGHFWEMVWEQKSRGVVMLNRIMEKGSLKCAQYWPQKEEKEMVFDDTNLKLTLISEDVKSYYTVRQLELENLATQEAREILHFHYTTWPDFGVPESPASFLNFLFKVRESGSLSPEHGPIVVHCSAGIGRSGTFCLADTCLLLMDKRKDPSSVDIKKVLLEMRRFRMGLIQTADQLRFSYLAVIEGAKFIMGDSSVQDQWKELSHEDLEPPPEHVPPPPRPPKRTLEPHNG
Assay: PTP1 assay, pNPP hydrolysis (rate of change in A405)
Assay type: biochemical
Details: for Ki: calculated from IC50-values obtained from a dose-response curve using the inhibition assay
Description: PTP1 Assays: A construct, which consisted of a C-terminal truncation of rat PTP1 (amino acid residues 1-322) (cloned from a rat brain library) with an N-terminal glutathione S-transferase (GST) tag and an adjacent thrombin cleavage site, was inserted into vector plasmid pGEX-2T and transformed into E. coli strain TG-1 under the control of a lac promoter (K. L. Guan and J. E. Dixon (1991) Eukaryotic proteins expressed in Escherichia coli: an improved thrombin cleavage and purification procedure of fusion proteins with glutathione S-transferase. Analyt. Biochem. 192: 262-267). The GST-fusion protein was purified on a glutathione agarose affinity column, the GST tag was cleaved with thrombin, and the active enzyme was recovered for use in an assay to identify PTP inhibitors.
PTP1 activity is measured using either p-nitrophenol phosphate (pNPP) or a triphosphopeptide (that matches residues 1142 through 1153 of the β-subunit and the insulin receptor) as substrate in a 96-well microtiter plate format. An assay pH of 7.2 is used for standard assays (measured 405=9800 at pH 7.2).
Standard assays are conducted at room temperature in a total volume of 0.2 ml that contains Hepes buffer (50 mM, pH 7.2), NaCl (50 mM), EDTA (1 mM), DTT (1 mM), bovine serum albumin (1 mg/ml), pNPP (1 mM) and PTP1 (35 ng/ml). Compounds (2 μl of 10 mM solutions) are pipetted into wells of microtiter plates followed by 198 μl of premixed reaction mix (with PTP1 and pNPP added immediately before use). The rate of change in A405 is recorded for 60 min. Two wells on each plate contain DMSO controls and two wells contain sodium orthovanadate (1 mM) which inhibits PTP1-catalyzed hydrolysis of pNPP completely. Data are expressed as percent inhibition relative to the average of the DMSO controls measured on the same microtiter plate.

[1] = Conc 1 uM, pNPP hydrolysis, Table 2, read-out: PTP1 Inhib PTP1N. % Inhib
[2] = Conc 10 uM, pNPP hydrolysis, Table 2, read-out: PTP1 Inhib PTP1N. % Inhib
[3] = Conc 100 uM, pNPP hydrolysis, Table 2, read-out: PTP1 Inhib PTP1N. % Inhib
[4] = inhibition of pNPP-hydrolysis, compound concentration 1 μM, read-out: % Inhibition
[5] = inhibition of pNPP-hydrolysis, compound concentration 10 μM, read-out: % Inhibition
[6] = inhibition of pNPP-hydrolysis, compound concentration 100 μM, read-out: % Inhibition
[7] = Conc 1 uM, pNPP hydrolysis, Table 1, read-out: PTP1 Inhib % Inhib
[8] = Conc 10 uM, pNPP hydrolysis, Table 1, read-out: PTP1 Inhib % Inhib
[9] = Conc 100 uM, pNPP hydrolysis, Table 1, read-out: PTP1 Inhib % Inhib

| SMILES | inhibition at 1 µM [7] [%] | inhibition at 10 µM [8] [%] | inhibition at 100 µM [9] [%] | other results |
| --- | --- | --- | --- | --- |
| CCCCCNC(=O)C(Cc1ccc(OC(COO)COO)cc1)NC(=O)C(Cc1ccc(OC(C)(C)C)cc1)NC(=O)OC(C)(C)C (centres unmarked) |  |  |  | inhibition at 1 µM [1]: 5%; inhibition at 10 µM [2]: 36%; inhibition at 100 µM [3]: 89% |
| CCCCCNC(=O)[C@H](Cc1ccc(OCC(=O)O)c(C(=O)O)c1)NC(=O)[C@H](Cc1ccccc1)NC(=O)Oc1ccccc1 [Example 158, 2-(Carboxymethoxy)-5-[(2S)-3-oxo-3-(pentylamino)-2-({(2S)-2-[(phenoxycarbonyl)amino]-3-phenylpropanoyl}amino)propyl]benzoic Acid] |  |  |  | Ki: 870 nM; inhibition at 1 µM [4]: 43%; inhibition at 10 µM [5]: 85%; inhibition at 100 µM [6]: 97% |
| CC(C)(C)OC(=O)N[C@@H](Cc1ccccc1)C(=O)N[C@@H](Cc1ccc(OCC(=O)O)c(C(=O)O)c1)C(=O)NOCCCc1ccccc1 [Example 157-28, 5-{(2S)-2-({(2S)-2-[(tert-Butoxycarbonyl)amino]-3-phenylpropanoyl}amino)-3-oxo-3-[(3-phenylpropoxy)amino]propyl}-2-(carboxymethoxy)benzoic Acid] |  |  |  | Ki: 400 nM |
| CCCCCNC(=O)[C@H](Cc1ccc(OC(C(=O)O)C(=O)O)cc1)NC(=O)C1C(C(=O)O)[C@@H]2CC[C@@H]1C2 (some centres unmarked) | 0 | 4 | 37 |  |
| CCCCCNC(=O)C(Cc1ccc(OC(COO)COO)cc1)NC(=O)C(Cc1ccc(OCc2ccccc2)cc1)NC(=O)CCC(=O)O (centres unmarked) |  |  |  | inhibition at 1 µM [1]: 30%; inhibition at 10 µM [2]: 80%; inhibition at 100 µM [3]: 98% |
| CCCCCNC(=O)[C@H](Cc1ccc(OC(C(=O)O)C(=O)O)cc1)NC(=O)[C@H](CC(=O)O)NC(=O)CCCCC | 14 | 57 | 91 |  |
| CCCCCNC(=O)[C@H](Cc1ccc(OC(C(=O)O)C(=O)O)cc1)NC(=O)C(CC(=O)O)CC(=O)O | 1 | 33 | 83 |  |
| CCCCCNC(=O)[C@H](Cc1ccc(CC(C(=O)O)C(=O)O)cc1)NC(=O)CCC(=O)O | 0 | 3 | 34 |  |
| CCCCCNC(=O)C(Cc1ccc(OC(COO)COO)cc1)NC(=O)Nc1ccc(C(=O)O)cc1 (centres unmarked) | 8 | 34 | 81 |  |
| O=C(O)CCC(=O)N[C@@H](Cc1ccc(OC(C(=O)O)C(=O)O)cc1)C(=O)NCCC(c1ccccc1)c1ccccc1 | 0 | 3 | 45 |  |
| O=C(O)CCC(=O)NC(Cc1ccc(OC(COO)COO)cc1)C(=O)NCCCc1ccccc1 (centres unmarked) | 8 | 23 | 72 |  |
| CC(C)(C)OC(=O)N[C@@H](Cc1ccccc1)C(=O)N[C@@H](Cc1ccc(OCC(=O)O)c(C(=O)O)c1)C(=O)NCc1cccnc1 [Example 157-14, 5-{(2S)-2-({(2S)-2-[(tert-Butoxycarbonyl)amino]-3-phenylpropanoyl}amino)-3-oxo-3-[(3-pyridinylmethyl)amino]propyl}-2-(carboxymethoxy)benzoic Acid] |  |  |  | inhibition at 1 µM [4]: 20%; inhibition at 10 µM [5]: 67%; inhibition at 100 µM [6]: 94% |
| O=C(O)CCC(=O)N[C@@H](Cc1ccc(OC(C(=O)O)C(=O)O)cc1)C(=O)NCCN1CCCCC1 | 0 | 2 | 23 |  |
| CC(C)(C)OC(=O)N[C@@H](Cc1ccccc1)C(=O)N[C@H](CO)Cc1ccc(OCC(=O)O)c(C(=O)O)c1 [Example 148, 5-[(2S)-2-({(2S)-2-[(tert-butoxycarbonyl)amino]-3-phenylpropanoyl}amino)-3-hydroxypropyl]-2-(carboxymethoxy)benzoic Acid] |  |  |  | inhibition at 1 µM [4]: 5%; inhibition at 10 µM [5]: 31%; inhibition at 100 µM [6]: 80% |
| CCCCCNC(=O)C(Cc1ccc(OC(CCOO)COO)cc1)NC(=O)CCC(=O)O (centres unmarked) | 0 | 1 | 34 |  |
| CCCCCNC(=O)[C@H](Cc1ccc(OC(C(=O)O)C(=O)O)cc1)NC(=O)C1CCCCC1C(=O)O (some centres unmarked) | 3 | 13 | 62 |  |

| SMILES | inhibition at 1 µM [7] [%] | inhibition at 10 µM [8] [%] | inhibition at 100 µM [9] [%] | other results |
| --- | --- | --- | --- | --- |
| CCCCCNC(=O)C(Cc1ccc(OC(COO)C(=O)O)cc1)NC(=O)NC(Cc1ccccc1)C(=O)O (centres unmarked) |  |  |  | inhibition at 1 µM [1]: 8%; inhibition at 10 µM [2]: 57%; inhibition at 100 µM [3]: 93% |
| O=C(O)CCC(=O)NC(Cc1ccc(C(=O)c2ccccc2)cc1)C(=O)NCCc1ccc(OC(COO)COO)cc1 (centres unmarked) |  |  |  | inhibition at 1 µM [1]: 1%; inhibition at 10 µM [2]: 13%; inhibition at 100 µM [3]: 60% |
| CCCCCNC(=O)[C@H](Cc1ccc(OC(C(=O)O)C(=O)O)cc1)NC(=O)CCc1ccc(CC(C(=O)O)C(=O)O)cc1 | 5 | 29 | 79 |  |
| O=C(O)COc1ccc(C[C@H](NS(=O)(=O)c2ccc(F)cc2F)C(=O)NCCCCc2ccc(Cl)cc2)cc1C(=O)O [Example 156-1, 2-(carboxymethoxy)-5-((2S)-3-{[4-(4-chlorophenyl)butyl]amino}-2-{[(2,4-difluorophenyl)sulfonyl]amino}-3-oxopropyl)benzoic acid] |  |  |  | inhibition at 1 µM [4]: 18%; inhibition at 10 µM [5]: 69%; inhibition at 100 µM [6]: 95% |
| CCCCCNC(=O)[C@H](Cc1ccc(OC(C(=O)O)C(=O)O)cc1)NC(=O)C1CC1C(=O)O (some centres unmarked) | 0 | 11 | 57 |  |
| CCCCCNC(=O)[C@H](Cc1ccc(OC(C(=O)O)C(=O)O)cc1)NC(=O)[C@@H]1CCCC[C@H]1C(=O)O | 1 | 20 | 72 |  |
| CCCCCNC(=O)C(Cc1ccc(OC(COO)COO)cc1)NC(=O)C(Cc1ccc(OCc2c(Cl)cccc2Cl)cc1)NC(=O)CCC(=O)O (centres unmarked) |  |  |  | inhibition at 1 µM [1]: 11%; inhibition at 10 µM [2]: 70%; inhibition at 100 µM [3]: 98% |
| CCCCCNC(=O)[C@H](Cc1ccc(OC(C(=O)O)C(=O)O)cc1)NC(=O)CCCC(=O)O | 2 | 17 | 67 |  |
| CCCCCNC(=O)[C@H](Cc1ccc(OCC(=O)O)c(C(=O)O)c1)NC(=O)c1cnc(Cl)c(Cl)c1 [Example 154-2, 2-(carboxymethoxy)-5-[(2S)-2-{[(5,6-dichloro-3-pyridinyl)carbonyl]amino}-3-oxo-3-(pentylamino)propyl]benzoic acid] |  |  |  | inhibition at 1 µM [4]: 23%; inhibition at 10 µM [5]: 72%; inhibition at 100 µM [6]: 95% |
| CCCCCNC(=O)[C@H](Cc1ccc(C=C(C(=O)O)C(=O)O)cc1)NC(=O)CCC(=O)O | 3 | 6 | 33 |  |
| O=C(O)COc1ccc(C[C@H](NC(=O)c2cccnc2)C(=O)NCCCCc2ccccc2)cc1C(=O)O [Example 154-11, 2-(carboxymethoxy)-5-{(2S)-3-oxo-3-[(4-phenylbutyl)amino]-2-[(3-pyridinylcarbonyl)amino]propyl}benzoic acid] |  |  |  | inhibition at 1 µM [4]: 22%; inhibition at 10 µM [5]: 73%; inhibition at 100 µM [6]: 95% |
| O=C(O)CCC(=O)N[C@@H](Cc1ccc(OC(C(=O)O)C(=O)O)cc1)C(=O)NCCc1ccc(O)cc1 | 1 | 7 | 43 |  |
| CCCCCNC(=O)[C@H](Cc1ccc(OC(C(=O)O)C(=O)O)cc1)NC(=O)c1ccccc1C(=O)O | 2 | 14 | 63 |  |
| O=C(O)CCC(=O)NC(Cc1ccc(OC(COO)COO)cc1)C(=O)NCc1ccc(C(=O)O)cc1 (centres unmarked) | 3 | 14 | 56 |  |
| CCCCCNC(=O)[C@H](Cc1ccc(OC(C(=O)O)C(=O)O)cc1)NC(=O)C(CC(=O)O)NC(=O)OC(C)(C)C (some centres unmarked) | 13 | 53 | 90 |  |
